These results are taken from patent publication US8987287B2, “Spirocyclic morphinans and their use” (Purdue Pharma L.P., priority 2012, dated 2015).

One assay addresses μ-opioid receptor (Homo sapiens (Human), UniProt P35372). Description: μ-opioid receptor [35S]GTPγS functional assay, U-2 OS cells. It counts as biochemical. The conditions noted are these: for Emax: relative to DAMGO, U-2 OS cells. How it is done:
μ-Opioid Receptor Functional Assay Procedures: [^35S]GTPγS functional assays were conducted using freshly thawed μ-receptor membranes prepared in-house from a cell line expressing recombinant μ opioid receptor in a HEK-293, CHO or U-2 OS cell background, or purchased from a commercial source (Perkin Elmer, Shelton, Conn.; or DiscovRx, Fremont, Calif.). Assay reactions were prepared by sequentially adding the following reagents to binding buffer (100 mM NaCl, 10 mM MgCl2, 20 mM HEPES, pH 7.4) on ice (final concentrations indicated): membrane protein (0.026 mg/mL), saponin ([…]), GDP ([…]) and [^35S]GTPγS (0.20 nM; Perkin Elmer, Shelton, Conn.). The prepared membrane solution (190 μl/well) was transferred to 96-shallow well polypropylene plates containing 10 μl of 20× concentrated stock solutions of the agonist [D-Ala^2, N-methyl-Phe^4 Gly-ol^5]-enkephalin (DAMGO) prepared in dimethyl sulfoxide (DMSO). Plates were incubated for 30 min at about 25° C. with shaking. Reactions were terminated by rapid filtration onto 96-well Unifilter GF/B filter plates (Perkin Elmer, Shelton, Conn.) using a 96-well tissue harvester (Perkin Elmer, Shelton, Conn.) followed by three filtration washes with 200 μl of ice-cold wash buffer (10 mM NaH2PO4, 10 mM Na2HPO4, pH 7.4). Filter plates were subsequently dried at 50° C. for 2-3 hours. BetaScint scintillation cocktail (Perkin Elmer, Shelton, Conn.) was added (50 μl/well) and plates were counted using a Packard Top-Count for 1 min/well. Data were analyzed using the sigmoidal dose-response curve fitting functions in GraphPad PRISM v. 3.0, or an in-house function for non-linear, sigmoidal dose-response curve-fitting.
μ-Opioid Receptor Functional Data: μ GTP EC50 is the concentration of a compound providing 50% of the maximal response for the compound at a μ-opioid receptor.
μ GTP Emax (%) is the maximal effect elicited by a compound relative to the effect elicited by DAMGO, a standard μ agonist. Generally, the μ GTP Emax (%) value measures the efficacy of a compound to treat or prevent pain or other Conditions.
(§1) The following TABLE 3 provides results on the activity response of certain Compounds of the Invention at the μ- and κ-opioid receptors determined as described above using U-2 OS cells.
For orientation: Binding of GTPγS marks nucleotide exchange on a G protein.

The target in the next assay is κ opioid receptor (Homo sapiens (Human), UniProt P41145). Briefly: κ-opioid receptor [35S]GTPγS functional assay, U-2 OS cells. The conditions noted are these: for Emax: relative to U69,593, U-2 OS cells. It counts as biochemical. How it is done: κ-Opioid Receptor Functional Assay Procedures: Functional [^35S]GTPγS binding assays were conducted as follows. κ opioid receptor membrane solution was prepared by sequentially adding final concentrations of 0.026 μg/μl κ membrane protein (in-house), 10 μg/mL saponin, 3 μM GDP and 0.20 nM [^35S]GTPγS to binding buffer (100 mM NaCl, 10 mM MgCl2, 20 mM HEPES, pH 7.4) on ice. The prepared membrane solution (190 μl/well) was transferred to 96-shallow well polypropylene plates containing 10 μl of 20× concentrated stock solutions of agonist prepared in DMSO. Plates were incubated for 30 min at a temperature of about 25° C. with shaking. Reactions were terminated by rapid filtration onto 96-well Unifilter GF/B filter plates (Perkin Elmer, Shelton, Conn.) using a 96-well tissue harvester (Packard) and followed by three filtration washes with 200 μl ice-cold binding buffer (10 mM NaH2PO4, 10 mM Na2HPO4, pH 7.4). Filter plates were subsequently dried at 50° C. for 2-3 hours. Fifty μl/well scintillation cocktail (Perkin Elmer, Shelton, Conn.) was added and plates were counted in a Packard Top-Count for 1 min/well.
κ-Opioid Receptor Functional Data: κ GTP EC50 is the concentration of a compound providing 50% of the maximal response for the compound at a κ receptor.
κ GTP Emax (%) is the maximal effect elicited by a compound relative to the effect elicited by U69,593.
as §1

Where only a bound is given, the exact number is not on record here.

In the case of `CCN1C(=O)N(Cc2ccc(O)cc2)C(=O)[C@@]12CC[C@@]1(O)[C@H]3Cc4ccc(O)cc4[C@@]1(CCN3CC1CC1)C2` [Compound 48, (4S,4b′R,8a′S,9′R)-11′-(cyclopropylmethyl)-3-ethyl-3′,8a′-dihydroxy-1-(4-hydroxybenzyl)-8′,8a′,9′,10′-tetrahydro-5′H,7′H-spiro[imidazolidin-4,6′-[9,4b](epiminoethano)-phenantrene]-2,5-dione], on μ-opioid receptor, the EC50 (commonly the concentration giving half of the maximal effect) turned out to be 0.82 ± 0.093 nM and the Emax (usually the size of the effect at its maximum, as opposed to the concentration needed) came out at 12 ± 0.58%. On κ opioid receptor, this compound gave an EC50 of 2.61 ± 0.3 nM and an Emax of 105 ± 1.2%.

In the case of `O=C1NC(=O)[C@@]2(CC[C@@]3(O)[C@H]4Cc5ccc(O)cc5[C@@]3(CCN4CC(F)(F)F)C2)N1` [Compound 32, (4bR,4′S,8aS,9R)-3,8a-dihydroxy-11-(2,2,2-trifluoroethyl)-5,7,8,8a,9,10-hexahydrospiro[9,4b-(epiminoethano)phenanthrene-6,4′-imidazolidine]-2′,5′-dione], the values for the EC50 at μ-opioid receptor and at κ opioid receptor were > 20000 nM and 523 ± 180 nM, respectively. The values for the Emax at μ-opioid receptor and on κ opioid receptor were 1.5% and 104 ± 1.2%, respectively.

On μ-opioid receptor, `CCN1C(=O)N[C@]2(CC[C@@]3(O)[C@H]4Cc5ccc(O)cc5[C@@]3(CCN4C)C2)C1=O` [Compound 61, (4S,4b′R,8a′S,9′R)-1-ethyl-3′,8a′-dihydroxy-11′-methyl-8′,8a′,9′,10′-tetrahydro-5′H,7′H-spiro[imidazolidine-4,6′-[9,4b](epiminoethano)phenantrene]-2,5-dione] came in with an EC50 of 39.1 ± 4.82 nM and an Emax of 103.3 ± 0.88%. Moreover, at κ opioid receptor, the EC50 worked out at 2480 ± 249 nM and the Emax was determined as 109 ± 6.06%.

As to `CCN1C(=O)N[C@]2(CC[C@@]3(O)[C@H]4Cc5ccc(O)cc5[C@@]3(CCN4CC)C2)C1=O` [Compound 31, (4bR,4′S,8aS,9R)-1′,11-diethyl-3,8a-dihydroxy-5,7,8,8a,9,10-hexahydrospiro[9,4b-(epiminoethano)phenanthrene-6,4′-imidazolidine]-2′,5′-dione], at μ-opioid receptor, the EC50 came out at 1510 ± 309 nM and the Emax was 88.9 ± 0.94%. In addition, on κ opioid receptor, the midpoint of the response, the EC50, lay at 445 ± 197 nM and the maximal response (Emax) turned out to be 102 ± 4.48%.

At μ-opioid receptor, `N#CCN1C(=O)NC(=O)[C@@]12CC[C@@]1(O)[C@H]3Cc4ccc(O)cc4[C@@]1(CCN3CC1CC1)C2` [Compound 68, 2-((4bR,4′S,8aS,9R)-11-(cyclopropylmethyl)-3,8a-dihydroxy-2,5-dioxo-5,7,8,8a,9,10-hexahydrospiro[9,4b-(epiminoethano)phenanthrene-6,4′-imidazolidin]-3′-yl)acetonitrile] had an EC50 of 5.63 ± 1.74 nM and an Emax of 16 ± 1.15%. On κ opioid receptor, this compound yielded an EC50 of 7.06 ± 1.53 nM and an Emax of 108 ± 6.89%.

For the compound `COc1ccc2c(c1)[C@]13CCN(CC(F)(F)F)[C@H](C2)[C@]1(O)CC[C@@]1(C3)NC(=O)NC1=O` [Compound 13, (4bR,4′S,8aS,9R)-8a-hydroxy-3-methoxy-11-(2,2,2-trifluoroethyl)-5,7,8,8a,9,10-hexahydrospiro[9,4b-(epiminoethano)phenanthrene-6,4′-imidazolidine]-2′,5′-dione], the EC50 on μ-opioid receptor and on κ opioid receptor was > 20000 nM throughout. Also, the Emax was 10% at μ-opioid receptor and 65 ± 8.74% at κ opioid receptor.

With `CC(C)CCN1CC[C@]23C[C@]4(CC[C@@]2(O)[C@H]1Cc1ccc(O)cc13)NC(=O)NC4=O` [Compound 28, (4bR,4′S,8aS,9R)-3,8a-dihydroxy-11-isopentyl-5,7,8,8a,9,10-hexahydrospiro[9,4b-(epiminoethano)phenanthrene-6,4′-imidazolidine]-2′,5′-dione], the EC50 at μ-opioid receptor came to 154 ± 20.1 nM; on κ opioid receptor, 604 ± 112 nM. Besides, the Emax on μ-opioid receptor was determined as 113 ± 2.78%; at κ opioid receptor, 88 ± 4.36%.

Turning to `CCN1CC[C@]23C[C@]4(CC[C@@]2(O)[C@H]1Cc1ccc(O)cc13)NC(=O)NC4=O` [Compound 29], on μ-opioid receptor, the EC50 came out at 1260 ± 206 nM and the Emax is 83.8 ± 0.8%. At κ opioid receptor, this compound yielded an EC50 of 250 ± 95 nM and an Emax of 102 ± 2.19%.

On to `COc1ccc2c(c1)[C@]13CCN(C/C=C/c4ccccc4)[C@H](C2)[C@]1(O)CC[C@@]1(C3)NC(=O)NC1=O` [Compound 24, (4bR,4′S,8aS,9R)-11-cinnamyl-8a-hydroxy-3-methoxy-5,7,8,8a,9,10-hexahydrospiro[9,4b-(epiminoethano)phenanthrene-6,4′-imidazolidine]-2′,5′-dione], for which, at μ-opioid receptor, the EC50 was > 20000 nM and the Emax was found to be 8%. Also, at κ opioid receptor, the EC50 was > 20000 nM and the Emax was 29.7 ± 1.86%.

Regarding `CCN1C(=O)N(CC)[C@]2(CC[C@@]3(O)[C@H]4Cc5ccc(O)cc5[C@@]3(CCN4CC3CC3)C2)C1=O` [Compound 46, (4S,4b′R,8a′S,9′R)-11′-(cyclopropylmethyl)-1,3-diethyl-3′,8a′-dihydroxy-8′,8a′,9′,10′-tetrahydro-5′H,7′H-spiro[imidazolidine-4,6′-[9,4b](epiminoethano)phenantrene]-2,5-dione], the EC50 amounted to 1.74 ± 0.22 nM at μ-opioid receptor and 1.57 ± 0.19 nM at κ opioid receptor. The Emax at μ-opioid receptor worked out at 10.7 ± 0.33%; on κ opioid receptor, 96.7 ± 3.67%.

With `O=C1NC(=O)[C@@]2(CC[C@@]3(O)[C@H]4Cc5ccc(O)cc5[C@@]3(CCN4CCc3ccccc3)C2)N1` [Compound 35, (4bR,4′S,8aS,9R)-3,8a-dihydroxy-11-phenethyl-5,7,8,8a,9,10-hexahydrospiro[9,4b-(epiminoethano)phenanthrene-6,4′-imidazolidine]-2′,5′-dione], the EC50 came out at 1.23 ± 0.093 nM at μ-opioid receptor and 270 ± 44.1 nM at κ opioid receptor. Moreover, the Emax on μ-opioid receptor worked out at 104 ± 3.51%; at κ opioid receptor it was 84 ± 1.53%.

For the compound `CCN1CC[C@]23C[C@]4(CC[C@@]2(O)[C@H]1Cc1ccc(OC)cc13)NC(=O)NC4=O` [Compound 15, (4bR,4′S,8aS,9R)-11-ethyl-8a-hydroxy-3-methoxy-5,7,8,8a,9,10-hexahydrospiro[9,4b-(epiminoethano)phenanthrene-6,4′-imidazolidine]-2′,5′-dione], the EC50 at μ-opioid receptor and at κ opioid receptor was > 20000 nM in each case. In addition, the Emax amounted to 8% at μ-opioid receptor and 65.3 ± 7.86% on κ opioid receptor.

With `CN1CC[C@]23C[C@@]4(CC[C@@]2(O)[C@H]1Cc1ccc(O)cc13)C(=O)NC(=O)N4C` [Compound 70, (4S,4b′R,8a′S,9′R)-3′,8a′-dihydroxy-3,11′-dimethyl-8′,8a′,9′,1′-tetrahydro-5′H,7′H-spiro[imidazolidine-4,6′-[9,4b](epiminoethano)phenantrene]-2,5-dione], at μ-opioid receptor, the EC50 came out at 23.4 ± 2.03 nM and the Emax worked out at 99 ± 1.53%. At κ opioid receptor, the EC50 is 322 ± 28.1 nM and the Emax was found to be 118 ± 9.61%.

At μ-opioid receptor, `O=C1NC(=O)[C@@]2(CC[C@@]3(O)[C@H]4Cc5ccc(O)cc5[C@@]3(CCN4CC3CCCCC3)C2)N1` [Compound 27, (4bR,4′S,8aS,9R)-11-(cyclohexylmethyl)-3,8a-dihydroxy-5,7,8,8a,9,10-hexahydrospiro[9,4b-(epiminoethano)phenanthrene-6,4′-imidazolidine]-2′,5′-dione] came in with an EC50 of 12800 ± 3860 nM and an Emax of 21.3 ± 1.86%. At κ opioid receptor, this compound gave an EC50 of 2080 ± 406 nM and an Emax of 33.3 ± 3.53%.

Take `O=C1NC(=O)[C@@]2(CC[C@@]3(O)[C@H]4Cc5ccc(O)cc5[C@@]3(CCN4CC(F)F)C2)N1` [Compound 38, (4bR,4′S,8aS,9R)-11-(2,2-difluoroethyl)-3,8a-dihydroxy-5,7,8,8a,9,10-hexahydrospiro[9,4b-(epiminoethano)phenanthrene-6,4′-imidazolidine]-2′,5′-dione]: on μ-opioid receptor, the EC50 is > 20000 nM and the Emax came to 12 ± 1%. Also, at κ opioid receptor, the EC50 was determined as 441 ± 144 nM and the Emax was determined as 99 ± 3.51%.
